Experimental data from patent US9765056B2, “Indole and pyrrole compounds, a process for their preparation and pharmaceutical compositions containing them” (LES LABORATOIRES SERVIER, priority 2013, dated 2017).

Assays:
Bcl-2 protein = Bcl-2 protein (histag-Bcl-2, UniProtKB P10415) (Homo sapiens (Human), UniProt P10415); test: Inhibition of Bcl-2 by the fluorescence polarisation technique; format: binding; settings: fluorescence polarisation test; method A, or method B where underlined (underlining not visible); read-out: IC50 (nM) Bcl-2 FP
Description: Inhibition of Bcl-2 by the fluorescence polarisation technique

[1] = tested on: RS4;11 leukaemia tumour line; test: In vitro cytotoxicity, Microculture Tetrazolium Assay (MTT); format: cell-based; settings: Homo sapiens; RS4;11 cells, 48 hours exposure
Method: The cytotoxicity studies were carried out on the RS4;11 leukaemia tumour line.
The cells are distributed onto microplates and exposed to the test compounds for 48 hours. The cell viability is then quantified by a colorimetric assay, the Microculture Tetrazolium Assay (Cancer Res., 1987, 47, 939-942).

Chain of Bcl-2 protein (P10415 whole entry): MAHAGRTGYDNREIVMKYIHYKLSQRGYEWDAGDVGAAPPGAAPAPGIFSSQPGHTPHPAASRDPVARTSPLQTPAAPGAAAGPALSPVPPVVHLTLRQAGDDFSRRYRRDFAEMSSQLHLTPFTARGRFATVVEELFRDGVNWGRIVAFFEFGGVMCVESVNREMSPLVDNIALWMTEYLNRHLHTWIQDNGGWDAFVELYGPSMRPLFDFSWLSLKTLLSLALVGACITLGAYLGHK

IC50 (Bcl-2 protein) [nM] | SMILES | IC50 [1] [nM]
8.7 | CN1CCN(C[C@@H]2Cc3ccccc3CN2C(=O)c2ccc(Cl)cc2-n2cc(C(=O)N(c3ccc(O)cc3)c3ccc(Cl)cc3)c3ccccc32)CC1 [Example 76, 1-(5-Chloro-2-{[(3S)-3-[(4-methylpiperazin-1-yl)methyl]-3,4-dihydroisoquinolin-2(1H)-yl]carbonyl}phenyl)-N-(4-chlorophenyl)-N-(4-hydroxyphenyl)-1H-indole-3-carboxamide] | 151
37.4 | COc1cc(C(=O)N2Cc3ccccc3C[C@H]2CN2CCN(C)CC2)c(-n2cc(C(=O)N(c3ccccc3)c3ccc(O)cc3)c3ccccc32)cc1Cl [Example 167, 1-{5-Chloro-4-methoxy-2-[(3S)-3-[(4-methylpiperazin-1-yl)methyl]-1,2,3,4-tetrahydroisoquinoline-2-carbonyl]phenyl}-N-(4-hydroxyphenyl)-N-phenyl-1H-indole-3-carboxamide] | 984
9.2 | CN1CCN(C[C@@H]2Cc3ccccc3CN2C(=O)c2cc3c(cc2-n2cc(C(=O)N(c4ccc(O)cc4)c4ccc5c(c4)CCN5)c4ccccc42)OCO3)CC1 [Example 47, N-(2,3-Dihydro-1H-indol-5-yl)-N-(4-hydroxyphenyl)-1-(6-{[(3S)-3-[(4-methylpiperazin-1-yl)methyl]-3,4-dihydroisoquinolin-2(1H)-yl]carbonyl}-1,3-benzodioxol-5-yl)-1H-indole-3-carboxamide] | 50.3
7.8 | CN1CCN(C[C@@H]2Cc3ccccc3CN2C(=O)c2cc3c(cc2-n2cc(C(=O)N(CCc4ccccc4)c4ccc(O)cc4)c4ccccc42)OCO3)CC1 [Example 40, N-(4-Hydroxyphenyl)-1-(6-{[(3S)-3-[(4-methylpiperazin-1-yl)methyl]-3,4-dihydroisoquinolin-2(1H)-yl]carbonyl}-1,3-benzodioxol-5-yl)-N-(2-phenylethyl)-1H-indole-3-carboxamide] | 167
3.9 | Cc1ccc(N(C(=O)c2cc(C)n(-c3cc4c(cc3C(=O)N3Cc5ccccc5C[C@H]3CN3CCN(C)CC3)OCO4)c2)c2ccc(O)cc2)cc1 [Example 96, N-(4-Hydroxyphenyl)-5-methyl-N-(4-methylphenyl)-1-(6-{[(3S)-3-[(4-methylpiperazin-1-yl)methyl]-3,4-dihydroisoquinolin-2(1H)-yl]carbonyl}-1,3-benzodioxol-5-yl)-1H-pyrrole-3-carboxamide] | 157
23.1 | Cc1cc(C(=O)N(c2ccccc2)c2ccc(O)cc2)cn1-c1cc(Br)ccc1C(=O)N1Cc2ccccc2C[C@H]1CN1CCOCC1 [Example 42, 1-(5-Bromo-2-{[(3S)-3-(morpholin-4-ylmethyl)-3,4-dihydroisoquinolin-2(1H)-yl]carbonyl}phenyl)-N-(4-hydroxyphenyl)-5-methyl-N-phenyl-1H-pyrrole-3-carboxamide] | 353
5.4 | Cc1cc(C(=O)N(c2ccc(O)cc2)c2ccc3[nH]ccc3c2)cn1-c1cc(Cl)ccc1C(=O)N1Cc2ccccc2C[C@H]1CN1CCN(C)CC1 [Example 86, 1-(5-Chloro-2-{[(3S)-3-[(4-methylpiperazin-1-yl)methyl]-3,4-dihydroisoquinolin-2(1H)-yl]carbonyl}phenyl)-N-(4-hydroxyphenyl)-N-(1H-indol-5-yl)-5-methyl-1H-pyrrole-3-carboxamide] | 67.7
841 | NC[C@@H]1Cc2ccccc2CN1C(=O)c1ccccc1-n1nc(C(=O)N(c2ccccc2)c2ccccc2)c2ccc(C(=O)O)cc21 [Example 133, 1-{2-[(3S)-3-(Aminomethyl)-1,2,3,4-tetrahydroisoquinoline-2-carbonyl]-phenyl}-3-(diphenylcarbamoyl)-1H-indazole-6-carboxylic acid] | 
8.3 | CN1CCN(C[C@@H]2Cc3ccccc3CN2C(=O)c2cc(O)c(O)cc2-n2cc(C(=O)N(c3ccccc3)c3ccc(O)cc3)c3ccccc32)CC1 [Example 183, 1-{4,5-Dihydroxy-2-[(3S)-3-[(4-methylpiperazin-1-yl)methyl]-1,2,3,4-tetrahydroisoquinoline-2-carbonyl]phenyl}-N-(4-hydroxyphenyl)-N-phenyl-1H-indole-3-carboxamide] | 
